Measurements reported in publication PMC10004634 (PLOS ONE, 2023).

Test system: TMD8 cells
Assay: SILAC phosphoproteomic analysis
Procedure: For differential SILAC encoding, both cells were grown in arginine- and lysine-deficient culture medium containing light (Arg0/Lys0) or heavy (Arg10/Lys8) isotopic forms of L-arginine and L-lysine (SILAC medium). […] For mass spectrometric analysis, phosphopeptide-enriched samples were loaded onto a reversed phase analytical column, resolved by an acetonitrile gradient using a nanoflow HPLC system and directly electrosprayed via a nanoelectrospray ion source into an LTQ-Orbitrap Velos mass spectrometer (Thermo Fisher Scientific). […] A false discovery rate (FDR) of 0.01 was selected for protein and peptide identification, and a posterior error probability of ≤0.1 for each peptide-to-spectral match was required. The resulting list of phosphosites exported from the MaxQuant software was filtered for class-I sites (only serine, threonine, or tyrosine assignments with a localization probability of ≥0.75) [33] and used for all subsequent biostatistical analysis. […] Gaussian regression analysis on the histogram plot of these log2-transformed ratios was performed using Sigmaplot (version 10.0; Systat Software Inc.). The obtained values for the mean and standard deviation across the whole quantitative dataset were used to determine thresholds for significant regulation of at least ±2.5 σ. […] Furthermore, only phosphosites conforming to this criterion and showing consistent regulation in both biological replicates were considered as regulated.

For CC#CC(=O)N1CC[C@@H](n2c(=O)n(-c3ccc(Oc4ccccc4)cc3)c3c(N)ncnc32)C1 [Tirabrutinib], the “reduction of ATF2 phosphorylation on Thr-69” value (1 μM, 1 h) was “approximately 50%”, the “reduction of ATF2 phosphorylation on Thr-71” value (1 μM, 1 h) was “approximately 50%” and the “number of downregulated phosphorylation sites” value (1 μM, 1 h, ratio <0.679) was 138. The “number of upregulated phosphorylation sites” value (1 μM, 1 h, ratio >1.472) was 15, the “Tirabrutinib/ctrl. rep. 1” value (AKT1S1 S183) was 0.69 and the “Tirabrutinib/ctrl. rep. 2” value (AKT1S1 S183) was 0.65. For the same compound, the “Tirabrutinib/ctrl. rep. 1” value (AKT1S1 S202) was 1.29, the “Tirabrutinib/ctrl. rep. 2” value (AKT1S1 S202) was 1.18 and the “Tirabrutinib/ctrl. rep. 1” value (AKT1S1 S203) was 1.16. The “Tirabrutinib/ctrl. rep. 2” value (AKT1S1 S203) was 1.11, the “Tirabrutinib/ctrl. rep. 1” value (AKT1S1 S211) was 0.98 and the “Tirabrutinib/ctrl. rep. 2” value (AKT1S1 S211) was 0.82. For the same compound, the “Regulation of Phosphorylation Site” value (AKT1S1 T246) was “↓”, the “Tirabrutinib/ctrl. rep. 1” value (AKT1S1 T246) was 0.61 and the “Tirabrutinib/ctrl. rep. 2” value (AKT1S1 T246) was 0.51. For the same compound, the “Tirabrutinib/ctrl. rep. 1” value (AKT1 S124) was 0.97, the “Tirabrutinib/ctrl. rep. 2” value (AKT1 S124) was 1.01 and the “Tirabrutinib/ctrl. rep. 1” value (AKT1 S129) was 1.07. For the same compound, the “Tirabrutinib/ctrl. rep. 2” value (AKT1 S129) was 0.94, the “Tirabrutinib/ctrl. rep. 1” value (AKT2 S126) was 0.95 and the “Tirabrutinib/ctrl. rep. 2” value (AKT2 S126) was 0.95. For the same compound, the “Tirabrutinib/ctrl. rep. 1” value (AKT2 T451) was 1.00, the “Tirabrutinib/ctrl. rep. 2” value (AKT2 T451) was 0.94 and the “Tirabrutinib/ctrl. rep. 1” value (ATF2 S112) was 1.07. The “Tirabrutinib/ctrl. rep. 2” value (ATF2 S112) was 0.83, the “Regulation of Phosphorylation Site” value (ATF2 T69) was “↓” and the “Tirabrutinib/ctrl. rep. 1” value (ATF2 T69) was 0.53. For the same compound, the “Tirabrutinib/ctrl. rep. 2” value (ATF2 T69) was 0.53, the “Regulation of Phosphorylation Site” value (ATF2 T71) was “↓” and the “Tirabrutinib/ctrl. rep. 1” value (ATF2 T71) was 0.50. For the same compound, the “Tirabrutinib/ctrl. rep. 2” value (ATF2 T71) was 0.53, the “Tirabrutinib/ctrl. rep. 1” value (CARD11 S483) was 0.72 and the “Tirabrutinib/ctrl. rep. 2” value (CARD11 S483) was 1.26. For the same compound, the “Tirabrutinib/ctrl. rep. 1” value (CARD11 S529) was 0.89, the “Tirabrutinib/ctrl. rep. 2” value (CARD11 S529) was 0.90 and the “Tirabrutinib/ctrl. rep. 2” value (CARD11 S554) was 0.79. The “Tirabrutinib/ctrl. rep. 1” value (CARD11 S610) was 0.99, the “Tirabrutinib/ctrl. rep. 2” value (CARD11 S610) was 0.96 and the “Tirabrutinib/ctrl. rep. 1” value (CARD11 S622) was 1.01. For the same compound, the “Tirabrutinib/ctrl. rep. 2” value (CARD11 S622) was 1.05, the “Tirabrutinib/ctrl. rep. 1” value (CARD11 S903) was 1.34 and the “Tirabrutinib/ctrl. rep. 2” value (CARD11 S903) was 1.37. For the same compound, the “Tirabrutinib/ctrl. rep. 1” value (CARD11 S942) was 0.92, the “Tirabrutinib/ctrl. rep. 2” value (CARD11 S942) was 0.78 and the “Regulation of Phosphorylation Site” value (ELK1 S501) was “↓”. For the same compound, the “Tirabrutinib/ctrl. rep. 1” value (ELK1 S501) was 0.33, the “Tirabrutinib/ctrl. rep. 2” value (ELK1 S501) was 0.48 and the “Regulation of Phosphorylation Site” value (ERF S327) was “↓”. The “Tirabrutinib/ctrl. rep. 1” value (ERF S327) was 0.59, the “Tirabrutinib/ctrl. rep. 2” value (ERF S327) was 0.50 and the “Tirabrutinib/ctrl. rep. 1” value (ERF T526) was 0.85. The “Tirabrutinib/ctrl. rep. 2” value (ERF T526) was 0.87, the “Regulation of Phosphorylation Site” value (ETV3 S245) was “↓” and the “Tirabrutinib/ctrl. rep. 1” value (ETV3 S245) was 0.30. The “Tirabrutinib/ctrl. rep. 2” value (ETV3 S245) was 0.28, the “Regulation of Phosphorylation Site” value (ETV3 S250) was “↓” and the “Tirabrutinib/ctrl. rep. 1” value (ETV3 S250) was 0.30. The “Tirabrutinib/ctrl. rep. 2” value (ETV3 S250) was 0.28, the “Tirabrutinib/ctrl. rep. 1” value (HSP27 S15) was 0.59 and the “Tirabrutinib/ctrl. rep. 2” value (HSP27 S15) was 1.31. The “Tirabrutinib/ctrl. rep. 1” value (HSP27 S78) was 0.67, the “Tirabrutinib/ctrl. rep. 2” value (HSP27 S78) was 0.69 and the “Regulation of Phosphorylation Site” value (HSP27 S82) was “↓”. For the same compound, the “Tirabrutinib/ctrl. rep. 1” value (HSP27 S82) was 0.62, the “Tirabrutinib/ctrl. rep. 2” value (HSP27 S82) was 0.60 and the “Tirabrutinib/ctrl. rep. 1” value (IKBKG S455) was 1.17. For the same compound, the “Tirabrutinib/ctrl. rep. 2” value (IKBKG S455) was 0.97, the “Regulation of Phosphorylation Site” value (MAPK1 Y187) was “↓” and the “Tirabrutinib/ctrl. rep. 1” value (MAPK1 Y187) was 0.34. For the same compound, the “Tirabrutinib/ctrl. rep. 2” value (MAPK1 Y187) was 0.47, the “Regulation of Phosphorylation Site” value (MAPK3 Y204) was “↓” and the “Tirabrutinib/ctrl. rep. 1” value (MAPK3 Y204) was 0.26. For the same compound, the “Tirabrutinib/ctrl. rep. 2” value (MAPK3 Y204) was 0.42, the “Tirabrutinib/ctrl. rep. 1” value (NHE1 S693) was 1.21 and the “Tirabrutinib/ctrl. rep. 2” value (NHE1 S693) was 1.00. For the same compound, the “Regulation of Phosphorylation Site” value (NHE1 S703) was “↓”, the “Tirabrutinib/ctrl. rep. 1” value (NHE1 S703) was 0.55 and the “Tirabrutinib/ctrl. rep. 2” value (NHE1 S703) was 0.51. For the same compound, the “Tirabrutinib/ctrl. rep. 1” value (NHE1 S785) was 1.11, the “Tirabrutinib/ctrl. rep. 2” value (NHE1 S785) was 1.29 and the “Tirabrutinib/ctrl. rep. 1” value (NHE1 S796) was 0.62. The “Tirabrutinib/ctrl. rep. 2” value (NHE1 S796) was 0.78, the “Tirabrutinib/ctrl. rep. 1” value (PEA15 S82) was 0.88 and the “Tirabrutinib/ctrl. rep. 2” value (PEA15 S82) was 0.96. The “Regulation of Phosphorylation Site” value (PEA15 S137) was “↓”, the “Tirabrutinib/ctrl. rep. 1” value (PEA15 S137) was 0.35 and the “Tirabrutinib/ctrl. rep. 2” value (PEA15 S137) was 0.29. For the same compound, the “Tirabrutinib/ctrl. rep. 1” value (PIK3AP1 S642) was 0.94, the “Tirabrutinib/ctrl. rep. 2” value (PIK3AP1 S642) was 1.03 and the “Tirabrutinib/ctrl. rep. 1” value (PIK3AP1 S759) was 0.83. For the same compound, the “Tirabrutinib/ctrl. rep. 2” value (PIK3AP1 S759) was 0.69, the “Tirabrutinib/ctrl. rep. 1” value (PIK3AP1 T151) was 1.07 and the “Tirabrutinib/ctrl. rep. 2” value (PIK3AP1 T151) was 1.02. The “Regulation of Phosphorylation Site” value (PIK3AP1 Y570) was “↓”, the “Tirabrutinib/ctrl. rep. 1” value (PIK3AP1 Y570) was 0.51 and the “Tirabrutinib/ctrl. rep. 2” value (PIK3AP1 Y570) was 0.41. The “Tirabrutinib/ctrl. rep. 1” value (PLCG2 S160) was 0.86, the “Tirabrutinib/ctrl. rep. 2” value (PLCG2 S160) was 1.09 and the “Tirabrutinib/ctrl. rep. 1” value (PLCG2 S443) was 0.84. For the same compound, the “Tirabrutinib/ctrl. rep. 2” value (PLCG2 S443) was 1.41, the “Tirabrutinib/ctrl. rep. 1” value (PLCG2 Y753) was 0.79 and the “Tirabrutinib/ctrl. rep. 2” value (PLCG2 Y753) was 0.55. For the same compound, the “Regulation of Phosphorylation Site” value (PRKCB S241) was “↑”, the “Tirabrutinib/ctrl. rep. 1” value (PRKCB S241) was 3.02 and the “Tirabrutinib/ctrl. rep. 2” value (PRKCB S241) was 1.76. The “Tirabrutinib/ctrl. rep. 1” value (PRKCB S673) was 0.88, the “Tirabrutinib/ctrl. rep. 2” value (PRKCB S673) was 0.60 and the “Tirabrutinib/ctrl. rep. 1” value (PRKCB T500) was 0.71. The “Tirabrutinib/ctrl. rep. 2” value (PRKCB T500) was 1.08, the “Tirabrutinib/ctrl. rep. 1” value (PRKCB T641) was 1.00 and the “Tirabrutinib/ctrl. rep. 2” value (PRKCB T641) was 1.01. The “Tirabrutinib/ctrl. rep. 1” value (PRKCB T642) was 0.99, the “Tirabrutinib/ctrl. rep. 2” value (PRKCB T642) was 1.92 and the “Tirabrutinib/ctrl. rep. 1” value (PRKD2 S198) was 0.55. For the same compound, the “Tirabrutinib/ctrl. rep. 2” value (PRKD2 S198) was 0.69, the “Regulation of Phosphorylation Site” value (PRKD2 S206) was “↓” and the “Tirabrutinib/ctrl. rep. 1” value (PRKD2 S206) was 0.32. The “Tirabrutinib/ctrl. rep. 2” value (PRKD2 S206) was 0.48, the “Regulation of Phosphorylation Site” value (PRKD2 S214) was “↓” and the “Tirabrutinib/ctrl. rep. 1” value (PRKD2 S214) was 0.46. The “Tirabrutinib/ctrl. rep. 2” value (PRKD2 S214) was 0.48, the “Regulation of Phosphorylation Site” value (PRKD2 S710) was “↓” and the “Tirabrutinib/ctrl. rep. 1” value (PRKD2 S710) was 0.45. For the same compound, the “Tirabrutinib/ctrl. rep. 2” value (PRKD2 S710) was 0.56, the “Tirabrutinib/ctrl. rep. 1” value (PRKD3 S31) was 0.76 and the “Tirabrutinib/ctrl. rep. 2” value (PRKD3 S31) was 0.85. For the same compound, the “Tirabrutinib/ctrl. rep. 1” value (PRKD3 S213) was 1.40, the “Tirabrutinib/ctrl. rep. 2” value (PRKD3 S213) was 1.11 and the “Tirabrutinib/ctrl. rep. 1” value (PRKD3 S364) was 0.98. The “Tirabrutinib/ctrl. rep. 2” value (PRKD3 S364) was 0.97, the “Tirabrutinib/ctrl. rep. 1” value (PRKD3 S395) was 0.77 and the “Tirabrutinib/ctrl. rep. 2” value (PRKD3 S395) was 0.65. For the same compound, the “Regulation of Phosphorylation Site” value (PRKD3 S735) was “↓”, the “Tirabrutinib/ctrl. rep. 1” value (PRKD3 S735) was 0.41 and the “Tirabrutinib/ctrl. rep. 2” value (PRKD3 S735) was 0.43. For the same compound, the “Regulation of Phosphorylation Site” value (RAF1 S1055) was “↓”, the “Tirabrutinib/ctrl. rep. 1” value (RAF1 S1055) was 0.61 and the “Tirabrutinib/ctrl. rep. 2” value (RAF1 S1055) was 0.61. The “Tirabrutinib/ctrl. rep. 1” value (RELA S203) was 0.85, the “Tirabrutinib/ctrl. rep. 2” value (RELA S203) was 1.23 and the “Tirabrutinib/ctrl. rep. 1” value (RELA S238) was 0.84. For the same compound, the “Tirabrutinib/ctrl. rep. 2” value (RELA S238) was 1.07, the “Tirabrutinib/ctrl. rep. 1” value (RPS6KA1 S230) was 0.93 and the “Tirabrutinib/ctrl. rep. 2” value (RPS6KA1 S230) was 0.89. For the same compound, the “Regulation of Phosphorylation Site” value (RPS6KA1 S741) was “↓”, the “Tirabrutinib/ctrl. rep. 1” value (RPS6KA1 S741) was 0.61 and the “Tirabrutinib/ctrl. rep. 2” value (RPS6KA1 S741) was 0.59. For the same compound, the “Tirabrutinib/ctrl. rep. 1” value (RPS6KA1 T234) was 0.93, the “Tirabrutinib/ctrl. rep. 2” value (RPS6KA1 T234) was 0.96 and the “Tirabrutinib/ctrl. rep. 1” value (TSC2 S1411) was 1.07. The “Tirabrutinib/ctrl. rep. 2” value (TSC2 S1411) was 1.15, the “Tirabrutinib/ctrl. rep. 1” value (TSC2 S1418) was 1.12 and the “Tirabrutinib/ctrl. rep. 2” value (TSC2 S1418) was 1.10. The “Tirabrutinib/ctrl. rep. 1” value (TSC2 S1799) was 1.15, the “Tirabrutinib/ctrl. rep. 2” value (TSC2 S1799) was 0.89 and the “Regulation of Phosphorylation Site” value (YBX1 S102) was “↓”. For the same compound, the “Tirabrutinib/ctrl. rep. 1” value (YBX1 S102) was 0.60, the “Tirabrutinib/ctrl. rep. 2” value (YBX1 S102) was 0.46 and the “Tirabrutinib/ctrl. rep. 1” value (YBX1 S165) was 0.91. The “Tirabrutinib/ctrl. rep. 2” value (YBX1 S165) was 0.96 and the “Tirabrutinib/ctrl. rep. 1” value (YBX1 S167) was 1.07.
